Assay results as given in patent US20260035363A1, “COMPOUNDS AND METHODS OF USE THEREOF AS ANTIBACTERIAL AGENTS” (priority 2019, published 2026).
Values after ≈ are worked out from the molar mass of the structure shown. Like-named read-outs stand apart in the source and are kept apart here.

Tests used:
Assay type in all cases: cell-based
[1] = test system: Mycobacterium tuberculosis (Mtb-GFP; H37Rv pMSP12::GFP); test: microbe, parasite or virus in culture; settings: 168 h, pH 6.8, read-out: Mtb Cho MITC95, cholesterol carbon source, pH 6.8, 7-day growth, GFP fluorescence, lowest concentration inhibiting 95% of growth
[2] = test system: Mycobacterium tuberculosis (Mtb-GFP; H37Rv pMSP12::GFP); test: microbe, parasite or virus in culture; settings: 168 h, pH 6.8, read-out: Mtb Glu MITC95, glucose carbon source, pH 6.8, 7-day growth, GFP fluorescence, lowest concentration inhibiting 95% of growth
[3] = test system: mitochondrial protein synthesis in HepG2 cells; test: Mitochondrial protein synthesis assay (COX-I to SDH-A ratio, In Cell ELISA); settings: 4 days, ratio of COX-I to SDH-A levels, read-out: MPS IC50
Experimental: Mitochondrial Protein Synthesis Assay
Inhibition of mitochondrial protein synthesis was assessed in HepG2 cells by comparing the levels of two subunits of oxidative phosphorylation enzyme complexes, subunit I of Complex IV (COX-I) and the 70 kDa subunit of Complex II (SDH-A). COX-I is mitochondrial DNA encoded and SDH-A is nuclear DNA encoded. HepG2 cells were seeded in 96-well collagen coated plates at 8,000 cells per well and exposed to 2-fold serial dilutions of compounds from 100 μM to 6.25 μM. Microtiter plates were incubated for approximately 5 replication cycles (4 days) prior to assessment of protein levels using a kit as described by the manufacturer (ab110217 MitoBiogenesis In Cell ELISA Kit, Abcam, Cambridge, MA). Inhibition of mitochondrial protein synthesis was expressed as a ratio of COX-1 to SDH-A levels.

| Structure (SMILES) | MIC [1] [µM] | MIC [2] [µM] | IC50 ([3]; Homo sapiens, HepG2, 96 h) [µM] | IC50 [3] [µM] |
| --- | --- | --- | --- | --- |
| CN1CC(F)(c2nnc3cc(-c4ccc(C5=NO[C@@H](Cn6ccnn6)C5)cc4F)ccn23)C1 [Example 51, 3-(3-Fluoro-1-methylazetidin-3-yl)-7-(2-fluoro-4-{(5R)-5-[(1H-1,2,3-triazol-1-yl)methyl]-4,5-dihydro-1,2-oxazol-3-yl}phenyl)[1,2,4]triazolo [4.3-a]pyridine] | 0.09 (≈ 0.0405 µg/mL) | 0.09 (≈ 0.0405 µg/mL) | 1.4 |  |
| CC(=O)NC[C@H]1CN(c2ccc(N3CCOCC3)c(F)c2)C(=O)O1 [linezolid, reference compound] | 3.14 (≈ 1.06 µg/mL) | 4.58 (≈ 1.55 µg/mL) | 8 |  |
| CN1CC(C)(S(=O)(=O)c2ccc(-c3ccc(C4=NO[C@@H](Cn5ccnn5)C4)c(F)c3F)cc2)C1 [Example 26, 1-({(5R)-3-[4′-(1,3-Dimethylazetidine-3-sulfonyl)-2,3-difluoro[1,1′-biphenyl]-4-yl]-4,5-dihydro-1,2-oxazol-5-yl}methyl)-1H-1,2,3-triazole] | 0.39 (≈ 0.19 µg/mL) | 0.39 (≈ 0.19 µg/mL) | 28 |  |
| CN1CC(C)(S(=O)(=O)c2ccc(-c3ccc(C4=NO[C@@H](Cn5ccnn5)C4)cc3F)cc2)C1 [Example 3, (5R)-3-[4-[4-(1,3-Dimethylazetidin-3-yl)sulfonylphenyl]-3-fluoro-phenyl]-5-(triazol-1-ylmethyl)-4,5-dihydroisoxazole] | 0.14 (≈ 0.0657 µg/mL) | 0.12 (≈ 0.0563 µg/mL) | 6.2 |  |
| CCOC(=O)NC[C@H]1CC(c2cc(F)c(C3(F)CCS(=O)(=O)CC3)c(F)c2)=NO1 [Example 55, Ethyl ({(5R)-3-[3,5-difluoro-4-(4-fluoro-1,1-dioxo-1λ^6-thian-4-yl)phenyl]-4,5-dihydro-1,2-oxazol-5-yl}methyl)carbamate] | 3.12 (≈ 1.36 µg/mL) | 3.12 (≈ 1.36 µg/mL) | > 100 |  |
| O=S1(=O)CCC(F)(c2ccc(C3=NO[C@@H](Cn4ccnn4)C3)cc2F)CC1 [Example 48, 4-Fluoro-4-(2-fluoro-4-{(5R)-5-[(1H-1,2,3-triazol-1-yl)methyl]-4,5-dihydro-1,2-oxazol-3-yl}phenyl)-1λ^6-thiane-1,1-dione] | 6.25 (≈ 2.48 µg/mL) | 6.25 (≈ 2.48 µg/mL) | > 100 |  |
| CN1CC(C)(S(=O)(=O)c2ccc(-c3ccc(C4=NO[C@@H](CNC(=O)C5CC5)C4)cc3F)cc2)C1 [Example 49, N-({(5R)-3-[4′-(1,3-Dimethylazetidine-3-sulfonyl)-2-fluoro[1,1′-biphenyl]-4-yl]-4,5-dihydro-1,2-oxazol-5-yl}methyl) cyclopropanecarboxamide] | 0.17 (≈ 0.0825 µg/mL) | 0.15 (≈ 0.0728 µg/mL) | 51 |  |
| Fc1cc(C2=NO[C@@H](Cn3ccnn3)C2)ccc1-c1ccn2c(C3CNC3)nnc2c1 [Example 37, 3-(Azetidin-3-yl)-7-(2-fluoro-4-{(5R)-5-[(1H-1,2,3-triazol-1-yl)methyl]-4,5-dihydro-1,2-oxazol-3-yl}phenyl)[1,2,4]triazolo[4,3-a]pyridine] | 1.56 (≈ 0.653 µg/mL) | 0.78 (≈ 0.326 µg/mL) | 65 |  |
| CN1CC(C)(S(=O)(=O)c2ccc(-c3c(F)cc(C4=NO[C@@H](Cn5ccnn5)C4)cc3F)cc2)C1 [Example 22, 1-({(5R)-3-[4′-(1,3-Dimethylazetidine-3-sulfonyl)-2,6-difluoro[1,1′-biphenyl]-4-yl]-4,5-dihydro-1,2-oxazol-5-yl}methyl)-1H-1,2,3-triazole] | 0.49 (≈ 0.239 µg/mL) | 0.29 (≈ 0.141 µg/mL) | 25 |  |
| O=S1(=O)CCC(F)(c2c(F)cc(C3=NO[C@@H](Cn4ccnn4)C3)cc2F)CC1 [Example 1, 4-[2,6-Difluoro-4-[(5R)-5-(triazol-1-ylmethyl)-4,5-dihydroisoxazol-3-yl]phenyl]-4-fluoro-thiane 1,1-dioxide] | 1.2 (≈ 0.497 µg/mL) | 1.2 (≈ 0.497 µg/mL) | 93 |  |
| N=S1(=O)CCC(F)(c2c(F)cc(C3=NO[C@@H](Cn4ccnn4)C3)cc2F)CC1 (stereo partly drawn) [Example 38, 4-(2,6-Difluoro-4-{(5R)-5-[(1H-1,2,3-triazol-1-yl)methyl]-4,5-dihydro-1,2-oxazol-3-yl}phenyl)-4-fluoro-1-imino-1λ^6-thian-1-one] | 1.56 (≈ 0.645 µg/mL) | 0.78 (≈ 0.322 µg/mL) |  | 44 |
| CN1CCC(C)(S(=O)(=O)c2ccc(-c3ccc(C4=NO[C@@H](Cn5ccnn5)C4)cc3F)cc2)C1 (stereo partly drawn) [Example 45, l-({(5R)-3-[4′-(1,3-Dimethylpyrrolidine-3-sulfonyl)-2-fluoro[1,1′-biphenyl]-4-yl]-4,5-dihydro-1,2-oxazol-5-yl}methyl)-1H-1,2,3-triazole] | 0.39 (≈ 0.189 µg/mL) | 0.19 (≈ 0.0919 µg/mL) | 4 |  |
| CN=S1(=O)CCC(F)(c2c(F)cc(C3=NO[C@@H](Cn4ccnn4)C3)cc2F)CC1 (single isomer, unassigned) [Example 6] | 1.56 (≈ 0.667 µg/mL) | 1.56 (≈ 0.667 µg/mL) | > 100 |  |
| CN1CC(S(=O)(=O)c2ccc(-c3c(F)cc(C4=NO[C@@H](CNS(C)(=O)=O)C4)cc3F)cc2)C1 [Example 33, N-({(5R)-3-[2,6-Difluoro-4′-(1-methylazetidine-3-sulfonyl)[1,1′-biphenyl]-4-yl]-4,5-dihydro-1,2-oxazol-5-yl}methyl) methanesulfonamide] | 1.66 (≈ 0.829 µg/mL) | 1.56 (≈ 0.779 µg/mL) | > 100 |  |
| CS(=O)(=O)NC[C@H]1CC(c2cc(F)c(C3(F)CCS(=O)(=O)CC3)c(F)c2)=NO1 [Example 53, N-({(5R)-3-[3,5-Difluoro-4-(4-fluoro-1,1-dioxo-1λ^6-thian-4-yl)phenyl]-4,5-dihydro-1,2-oxazol-5-yl}methyl) methanesulfonamide] | 6.25 (≈ 2.75 µg/mL) | 6.25 (≈ 2.75 µg/mL) | > 100 |  |
| CN1CC(Oc2ccc(-c3ccc(C4=NO[C@@H](CO)C4)cc3F)cc2)C1 [Example 35, [(5R)-3-{2-Fluoro-4′-[(1-methylazetidin-3-yl)oxy][1,1′-biphenyl]-4-yl}-4,5-dihydro-1,2-oxazol-5-yl]methanol] | 3.12 (≈ 1.11 µg/mL) | 3.12 (≈ 1.11 µg/mL) | > 50 |  |
| O=S1(=O)CCC(F)(c2c(F)cc(C3=NO[C@@H](Cn4cc(CO)nn4)C3)cc2F)CC1 [Example 40, 4-{2,6-Difluoro-4-[(5R)-5-{[4-(hydroxymethyl)-1H-1,2,3-triazol-1-yl]methyl}-4,5-dihydro-1,2-oxazol-3-yl]phenyl}-4-fluoro-1λ^6-thiane-1,1-dione] | 1.56 (≈ 0.693 µg/mL) | 1.56 (≈ 0.693 µg/mL) | > 100 |  |
| CN1CC(C)(C(F)(F)c2ccc(-c3ccc(C4=NO[C@@H](Cn5ccnn5)C4)cc3F)cc2)C1 [Example 10, 1-{[(5R)-3-{4′-[(1,3-Dimethylazetidin-3-yl)(difluoro)methyl]-2-fluoro[1,1′-biphenyl]-4-yl}-4,5-dihydro-1,2-oxazol-5-yl]methyl}-1H-1,2,3-triazole] | 0.19 (≈ 0.0865 µg/mL) | 0.19 (≈ 0.0865 µg/mL) | 22 |  |
| CN1CC(Oc2ccc(-c3c(F)cc(C4=NO[C@@H](Cn5ccnn5)C4)cc3F)cc2)C1 [Example 34, 1-{[(5R)-3-{2,6-Difluoro-4′-[(1-methylazetidin-3-yl)oxy][1,1′-biphenyl]-4-yl}-4,5-dihydro-1,2-oxazol-5-yl]methyl}-1H-1,2,3-triazole] | 0.09 (≈ 0.0383 µg/mL) | 0.09 (≈ 0.0383 µg/mL) | 2.6 |  |
| CN1CC(C)(S(=O)(=O)c2ccc(-c3ccc(C4=NO[C@@H](CO)C4)cc3F)cc2)C1 [Example 21, {(5R)-3-[4′-(1,3-Dimethylazetidine-3-sulfonyl)-2-fluoro[1,1′-biphenyl]-4-yl]-4,5-dihydro-1,2-oxazol-5-yl}methanol] | 1.56 (≈ 0.653 µg/mL) | 1.56 (≈ 0.653 µg/mL) | > 100 |  |
| Cc1nnc2cc(-c3c(F)cc(C4=NO[C@@H](Cn5ccnn5)C4)cc3F)ccn12 [Example 16, (5R)-3-[3,5-Difluoro-4-(3-methyl-[1,2,4]triazolo[4,3-a]pyridin-7-yl)phenyl]-5-(triazol-1-ylmethyl)-4,5-dihydroisoxazole] | 0.59 (≈ 0.233 µg/mL) | 0.39 (≈ 0.154 µg/mL) | 5.4 |  |
| CN1CC(S(=O)(=O)c2ccc(-c3c(F)cc(C4=NO[C@@H](CO)C4)cc3F)cc2)C1 [Example 41, {(5R)-3-[2,6-Difluoro-4′-(1-methylazetidine-3-sulfonyl)[1,1′-biphenyl]-4-yl]-4,5-dihydro-1,2-oxazol-5-yl}methanol] | 2.34 (≈ 0.989 µg/mL) | 1.56 (≈ 0.659 µg/mL) | > 100 |  |
| CC(=O)NC[C@H]1CC(c2ccc(-c3ccc(S(=O)(=O)C4(C)CN(C)C4)cc3)c(F)c2)=NO1 [Example 18, N-[[(5R)-3-[4-[4-(1,3-Dimethylazetidin-3-yl)sulfonylphenyl]-3-fluoro-phenyl]-4,5-dihydroisoxazol-5-yl]methyl]acetamide] | 0.39 (≈ 0.179 µg/mL) | 0.39 (≈ 0.179 µg/mL) | 13 |  |
| COC(=O)NC[C@H]1CC(c2cc(F)c(N3CCS(=O)(=O)CC3)c(F)c2)=NO1 [Example 4, Methyl N-[[(5R)-3-[4-(1,1-dioxo-1,4-thiazinan-4-yl)-3,5-difluoro-phenyl]-4,5-dihydroisoxazol-5-yl]methyl]carbamate] | 3.12 (≈ 1.26 µg/mL) | 3.12 (≈ 1.26 µg/mL) | > 100 |  |
| Cc1cn(C[C@H]2CC(c3cc(F)c(C4(F)CCS(=O)(=O)CC4)c(F)c3)=NO2)nn1 [Example 54, 4-(2,6-Difluoro-4-{(5R)-5-[(4-methyl-1H-1,2,3-triazol-1-yl)methyl]-4,5-dihydro-1,2-oxazol-3-yl}phenyl)-4-fluoro-1λ^6-thiane-1,1-dione] | 1.17 (≈ 0.501 µg/mL) | 0.78 (≈ 0.334 µg/mL) | 45 |  |
